In patent US9303042B2, “Triazolothienopyrimidine compound inhibitors of urea transporters and methods of using inhibitors” (The Regents of the University of California, priority 2012, dated 2016):

Legend:
[1] = biological target: T1, UT-B (Mus musculus, UniProt Q8VHL0); test: Transepithelial urea transport in MDCK cells stably expressing UT-B; format: cell-based; details: phloretin 100 μM
T1 sequence (Q8VHL0 1-384): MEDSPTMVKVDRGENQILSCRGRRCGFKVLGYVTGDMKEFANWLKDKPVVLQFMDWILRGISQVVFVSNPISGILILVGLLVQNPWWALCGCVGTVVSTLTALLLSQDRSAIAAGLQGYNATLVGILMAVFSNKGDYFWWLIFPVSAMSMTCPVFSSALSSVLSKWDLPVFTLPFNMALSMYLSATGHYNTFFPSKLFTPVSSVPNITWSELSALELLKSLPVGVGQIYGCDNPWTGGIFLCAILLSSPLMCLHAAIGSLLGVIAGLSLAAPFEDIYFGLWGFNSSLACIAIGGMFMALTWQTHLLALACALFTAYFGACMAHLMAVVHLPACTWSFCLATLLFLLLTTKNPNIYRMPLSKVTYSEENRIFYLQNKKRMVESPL
Method: (§1) UT-B selectivity and cytotoxicity were studied. Because of sequence similarities between UT-B and UT-A isoforms, UT-A inhibition was measured. Transepithelial urea transport was measured in MDCK cells stably expressing UT-A1, UT-A3, and UT-B. UT-A1 and UT-A3 are cAMP-regulated urea transporters expressed in kidney tubule epithelia (see, e.g., Frohlich et al., Am. J. Physiol. Cell Physiol. 291:C600-606 (2006); Tickle et al., Am. J. Physiol. Regul. Integr. Comp Physiol 0.297: R323-329 (2009); Stewart et al., Am. J. Physiol. Renal Physiol. 292:F1157-63 (2006)). MDCK cells were cultured on collagen-coated porous filters for measurement of urea accumulation in the apical solution following addition of urea to the basolateral solution.
(§2) cDNAs encoding mouse UT-A3 and UT-B were cloned into pcDNA3.1 and used to generate stably transfected MDCK cell lines. MDCK cells stably expressing rat UT-A1 (MDCK-UT-A1) (see, e.g., Frohlich et al., supra) were obtained as described (see, e.g., Levin et al., FASEB J., supra). Cells were cultured in DMEM containing 10% FBS and 0.5 mg/mL G418. […] Urea flux in the basolateral-to-apical direction across unstimulated and forskolin-stimulated cell layers was measured in response to a 15-mM urea gradient. […]

[2] = biological target: T2, UT-A3 (Mus musculus, UniProt Q8R4T9); test: Transepithelial urea transport in MDCK cells stably expressing UT-A3; format: cell-based; details: phloretin 100 μM
T2 construct: expressed in transfected cells
T2 sequence (Q8R4T9 1-461 isoform Q8R4T9-3): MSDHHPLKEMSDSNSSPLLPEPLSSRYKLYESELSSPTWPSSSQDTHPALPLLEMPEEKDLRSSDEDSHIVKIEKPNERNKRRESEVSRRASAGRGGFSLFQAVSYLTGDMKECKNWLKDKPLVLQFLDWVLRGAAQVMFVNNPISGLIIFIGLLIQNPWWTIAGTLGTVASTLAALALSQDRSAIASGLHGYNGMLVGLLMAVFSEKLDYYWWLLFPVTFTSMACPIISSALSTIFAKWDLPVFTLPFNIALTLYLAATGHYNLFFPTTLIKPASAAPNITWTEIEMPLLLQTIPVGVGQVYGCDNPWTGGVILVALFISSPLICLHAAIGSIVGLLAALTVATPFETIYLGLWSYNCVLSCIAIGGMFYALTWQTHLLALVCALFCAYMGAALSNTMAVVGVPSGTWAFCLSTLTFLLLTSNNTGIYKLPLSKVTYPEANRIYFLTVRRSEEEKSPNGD
Method: as §1, §2

[3] = system: UT; details: literature; cited from earlier work
[4] = biological target: T3, UT-A1 (Rattus norvegicus, UniProt Q62668); test: Transepithelial urea transport in MDCK cells stably expressing UT-A1; format: cell-based; details: phloretin 100 μM
T3 construct: expressed in transfected cells; host or cells: MDCK cells (MDCK-UT-A1), obtained as described in cited literature
T3 sequence (Q62668 1-929): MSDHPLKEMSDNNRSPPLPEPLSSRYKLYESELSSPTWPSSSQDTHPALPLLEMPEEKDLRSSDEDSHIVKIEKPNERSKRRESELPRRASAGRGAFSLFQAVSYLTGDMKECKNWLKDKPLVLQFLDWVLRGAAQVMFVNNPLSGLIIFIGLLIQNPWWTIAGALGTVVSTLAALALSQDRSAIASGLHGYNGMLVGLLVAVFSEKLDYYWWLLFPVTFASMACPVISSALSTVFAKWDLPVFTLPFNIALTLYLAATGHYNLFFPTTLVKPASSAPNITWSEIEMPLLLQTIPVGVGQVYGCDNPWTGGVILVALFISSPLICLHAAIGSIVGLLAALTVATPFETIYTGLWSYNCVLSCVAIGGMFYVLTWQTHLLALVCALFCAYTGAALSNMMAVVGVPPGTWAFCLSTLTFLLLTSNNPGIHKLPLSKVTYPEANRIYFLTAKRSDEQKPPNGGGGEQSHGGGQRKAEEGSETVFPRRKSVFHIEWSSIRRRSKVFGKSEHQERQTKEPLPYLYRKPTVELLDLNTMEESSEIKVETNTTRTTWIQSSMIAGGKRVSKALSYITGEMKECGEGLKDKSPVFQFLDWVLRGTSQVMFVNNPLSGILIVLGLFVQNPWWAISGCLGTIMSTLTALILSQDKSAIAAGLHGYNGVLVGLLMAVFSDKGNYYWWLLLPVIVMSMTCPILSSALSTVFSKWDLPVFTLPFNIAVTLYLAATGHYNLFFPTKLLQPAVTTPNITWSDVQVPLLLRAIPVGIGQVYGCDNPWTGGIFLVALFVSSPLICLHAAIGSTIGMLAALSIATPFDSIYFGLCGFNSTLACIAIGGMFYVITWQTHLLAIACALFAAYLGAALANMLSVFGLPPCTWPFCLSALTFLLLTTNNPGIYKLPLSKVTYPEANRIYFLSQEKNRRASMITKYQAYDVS
Method: as §1, §2

Structure (SMILES): O=C(CCc1ccc(O)cc1)c1c(O)cc(O)cc1O [phloretin, reference compound]
- UT-facilitated urea transport (UT-B) [1]: inhibited
- UT-facilitated urea transport (UT-A3) [2]: inhibited
- concentration exhibiting activity [3]: > 0.5 mM
- UT-facilitated urea transport (UT-A1) [4]: inhibited
